Values quoted from earlier work, collected in patent US8747385B2, “Methods and compositions to treat myocardial conditions” (Abbott Cardiovascular Systems Inc., priority 2003, dated 2014).

Structure (SMILES) | O2 solubility at 37° C. [V %]
FC(F)(F)C(F)(F)C(F)(F)C(F)(F)CCC(F)(F)C(F)(F)C(F)(F)C(F)(F)F [F-44E, 1,2-bis(perfluorobutyl)ethane] | 50
FC1(F)C(F)(F)C(F)(F)C2(F)C(F)(F)C(F)(F)C(F)(F)C(F)(F)C2(F)C1(F)F (centres unmarked) [FDC, Perfluorodecalin] | 45
